Results published in US8597700B2, “Method of treating osteoporosis with extract of Dioscorea sp” (National Yang-Ming University, priority 2002, dated 2013).
Marks after values point to notes of the source that are not given here.

What was measured:
[1] = test system: osteoprogenitor cells; experiment: Proliferative response of osteoprogenitor cells of mice (MTT assay); type: cell-based, C3H/HeN mice; settings: 0.01 and 0.1 μg/ml, 72 hours
Procedure: Under sterile conditions, femoral bones of the SPF grade of C3H/HeN mouse were obtained and injected with DMEM/F12. The bone marrow cells were flushed out and filtered through No. 53 sterile nylon mesh. The single cell suspension obtained was mixed with DMEM/F12 culture medium containing 15% FCS to adjust the concentration of the cells.
The cells were cultured in DMEM/F12 medium containing 15% FCS, 50 μg/ml ascorbic acid, 10 mM sodium β glycerophosphate and 10 nM dexamethasone in a T-flask for 6 days. The culture medium was renewed every 3 days. The cell concentration was 10^6 cells/cm^2. On the 6th day, the suspended cells and culture medium were drawn out. The adhering cell layer was washed with 1×PBS that had been warmed to room temperature, and then treated with 0.01% EDTA at 37° C. for 5 to 10 minutes. […]
The cells obtained in preparatory step 4 were dispersed using a 22 G gauge needle and suspended in DMEM/F12 medium containing 15% FCS, 50 μg/ml ascorbic acid, 10 mM sodium β-glycerophosphate and 10 nM dexamethazone to form a concentration of 4.5×10^4 cells/ml. […] 1 mg/ml MTT solution was added in each well and reacted for 4 hours MTT lysis buffer (20% SDS-50% DMF) was added in each well in the amount of 150 μl/well and reacted for 16 hours, and the absorbance was measured at O.D. 570 nm for the resultant cell suspension in each well.

[2] = test system: bone marrow cells of C3H mice; experiment: Proliferation (MTT) and morphological changes of bone marrow cells in the presence of EGF; type: cell-based, C3H/HeN mice
Procedure: (§1) Under sterile conditions, SPF grade C3H/HeN mice were sacrificed and their femoral bones were injected with a liquid culture of DMEM/F12 to flush out the bone marrow cells. The cells were filtered through sterile No. 53 nylon mesh. The single cell suspension so obtained was mixed with DMEM/F12 culture medium containing N2 to adjust to the proper concentration.
1×10^4 cells/well bone marrow cells of mice obtained in preparatory step 3 were seeded in a 96-well microplate containing DMEM/F12 culture medium with N2 and 10 ng/ml EGF and incubated in a 5% CO2 incubator at 37° C for 24 hrs. The extract and DHEA were added into different wells respectively. Wells containing pure culture medium into which no methanol extract and DHEA were added, and which were subjected to the same incubation procedure, were used as […]. In addition, for use as positive control, the same procedure as that for control was repeated except that 50 ng/ml EGF was used. The proliferation responses were measured by a MTT assay. In accordance with the MTT assay, each of the wells was added with 1 mg/ml MTT solution and, after 4 hours of reaction, MTT lysis buffer (20% SDS-50% DMF) was added thereinto in an amount of 150 μl/well. The resultant mixture was allowed to be reacted for 16 hours. The absorbance was measured at O.D. 570 nm.

[3] = test system: bone marrow cells of mice; experiment: Proliferation (MTT) and morphologic change of bone marrow cells in the presence of GM-CSF; type: cell-based
Procedure: as §1
1×10^4 cells/well bone marrow cells of mice obtained in preparatory step 3 were seeded in each well of the 96-well microplate, cultured in DMEM/F 12 culture medium containing N2, and 4 ng/ml mGM-CSF. Methanol extracts of Dioscorea sp. with different concentrations were respectively added into the resultant cultured cells in the different wells. The resultant methanol extract containing cultured cells in different wells were then incubated in a 5% CO2 incubator at 37° C. for 14 days. The cells cultured in DMEM/F12 medium containing N2 and 20 ng/ml mGM-CSF is used as positive control. A MTT assay was performed. In this respect, 1 mg/ml MTT solution was added in each well so as to react with the cultured cells therein for 4 hours. MTT lysis buffer (20% SDS-50% DMF) was added in a n amount of 150 μl/well. The resultant mixture was allowed to react for 16 hours. The absorbance was measured at O.D. 570 nm.

In the case of `C[C@]12CC[C@H](O)CC1=CC[C@@H]1[C@@H]2CC[C@]2(C)C(=O)CC[C@@H]12` [DHEA, Dehydroepiandrosterone], the “proliferation of the osteoprogenitor cells” value [1] is reported as “no effect”, the “Proliferation Index” value ([2]; 0.0001 μg/ml) is reported as 0.99 and the “Proliferation Index” value ([2]; 0.001 μg/ml) is reported as 0.64. The “Proliferation Index” value ([2]; 0.01 μg/ml) was 0.65, the “Proliferation Index” value ([2]; 0.1 μg/ml) was 0.67 and the “Proliferation Index” value ([2]; 1 μg/ml) was 0.70. The “Proliferation Index” value ([3]; 0.0001 μg/ml) was 0.99, the “Proliferation Index” value ([3]; 0.001 μg/ml) was 1.15 and the “Proliferation Index” value ([3]; 0.01 μg/ml) was 1.04. The “Proliferation Index” value ([3]; 0.1 μg/ml) was 1.13, the “Proliferation Index” value ([3]; 1 μg/ml) was 1.11 and the “Proliferation Index” value ([3]; 10 μg/ml) was 1.19*. The “differentiation of bone marrow cells” value ([3]; 20-week old adult mouse bone marrow cells) was “enhancing cell differentiation”.
